Results taken from publication doi:10.1101/2021.02.13.431008v1 (biorxiv, 2021).

Tests used:
[1] = molecular target: T1, SARS-CoV-2 PLpro (papain-like protease) (Severe acute respiratory syndrome coronavirus 2, UniProt P0DTD1); details: binder
[2] = molecular target: T1, SARS-CoV-2 PLpro (papain-like protease); assay: biochemical

SMILES | Ave kd [1] [s⁻¹] | IC50 [2] [µM]
Cc1ccc(NC2CNC2)cc1C(=O)N[C@H](C)c1cccc(-c2ccc(CNC3CCCC3)s2)c1 [XR8-23] | 0.124 | –
Cc1ccc(NC2CNC2)cc1C(=O)N[C@H](C)c1cccc2ccccc12 [ZN2-184] | 0.349 | –
Cc1ccc(NC2CNC2)cc1C(=O)N[C@H](C)c1cccc(-c2cccs2)c1 [ZN3-80] | 0.327 | –
CC(C)c1cc(C(C)C)c(CC(=O)NS(=O)(=O)Oc2c(C(C)C)cccc2C(C)C)c(C(C)C)c1 [avasimibe] | – | > 20
CCOc1nc2cccc(C(=O)O)c2n1Cc1ccc(-c2ccccc2-c2nnn[nH]2)cc1 [candesartan] | – | > 20
